How the values were obtained:
[1] = system: methicillin-resistant Staphylococcus aureus (MRSA, No. 164 strain); experiment: Treatment effect test on mice infected by MRSA, bacterial count in intestine content; assay type: in vivo; details: mice, oral 100 mg/kg
Method: The following test was performed to evaluate the treatment effect on mice infected by bacterial (MRSA) of sample 22 obtained by synthesis.
Mice (ICR, SLC, male, 5 weeks old) were prepared by rearing on drinking water mixed with amphotericin B (AMPH: product of Bristol-Myers Company) and tetracycline, such that their concentrations are 10 μg/mL (AMPH) and 2000 μg/mL (tetracycline) respectively, a week before the start of the test, and the immunity of the mice was weaken by administrating 200 mg/kg amount of cyclophosphamide into the abdominal for 3 days from the fourth day prior to the test.
Bacterial suspension prepared by suspending methicillin-resistant Staphylococcus aureus (MRSA, No. 164 strain) in 10% (w/v) of mucin solution was orally administered to the mice at a bacterial administration quantity of 10^8 cells/mouse, thereby eliciting MRSA infection.
One hour after the bacterial inoculation, antimicrobial agent prepared by suspending the test material (therefore polypeptide of sample 22) in 10% of gum arabic solution was orally administered. The administered quantity of suspension was 100 mg/kg. A total of 5 test groups, with each test group containing 5 test mice, were tested. For comparison, antimicrobial agent prepared by suspending vancomycin in 10% of gum arabic solution was orally administered to the test mice under the same conditions.
After the drug administration, test mice were slaughtered approximately 24 hours later, and the contents in the intestine extracted, and the bacterial count of MRSA examined. More specifically, 1.8 mL of physiological saline was added to and mixed with approximately 0.2 g of intestine contents. A fixed quantity of such mixture was smeared on mannitol agar medium (product of Nissui Pharmaceutical Co., Ltd) including gentamicin (GM) with a concentration of […], and cultured for 3 days at 37° C.

[2] = system: Escherichia coli IFO 3972; experiment: MIC by liquid medium dilution technique, 96-well microplate, gram-negative bacteria; assay type: cell-based; details: IFO 3972, 24 h
Method: (§1) Regarding the antimicrobial peptide (samples 1 to 20) related to the present invention, the antimicrobial activities (minimum inhibitory concentration: MIC) with respect to gram-negative bacteria (Escherichia coli IFO 3972) and gram-positive bacteria (Staphylococcus aureus IFO 12732) were determined by a liquid medium dilution technique using a 96-well microplate.
(§2) First, a drug (synthesized polypeptide) solution having a concentration of 40 times of the highest test concentration was prepared using sterile distilled water, and liquid-bouillon mediums (more specifically, “Mueller Hinton Broth” manufactured by DIFCO) including cation and having drug concentrations of 100, 50, 25, 12.5, 6.3, 3.1, 1.6 and 0.8 μM were respectively produced. The cation included was prepared as follows: dissolving 3.68 g of CaCl2.2H2O in 100 mL of purified water (10 mg.Ca^2+/mL), and thereafter adding 500 μL thereof into 100 mL of Mueller Hinton Broth; and dissolving 8.36 g of MgCl2.6H2O in 100 mL of purified water (10 mg.Mg^2+/mL), and thereafter adding 250 μL thereof into 100 mL of Mueller Hinton Broth. Thereafter, the produced liquid-bouillon mediums including the drug of each concentration were then fed to the 96-well microplate at […] a time.
(§3) At the same time, test bacteria cultured for 18 hours at 37° C. on an agar plate (“Muller Hinton Agar” manufactured by DIFCO) were gathered by scratching with a loop, and then suspended in a sterilized physiological saline. Bacterial suspension 5 μL prepared at an equivalent of 2×10^7 cells/mL was respectively inoculated (number of bacteria to be tested: approximately 1×10^6 cells/mL) onto the drug solution and fed to each well of the above-described microplate. After inoculation, the microplate was then incubated in an incubator at 37° C., and the presence of bacteria was evaluated based on the turbidity 24 hours later. The minimum drug concentration (polypeptide concentration), in which an increased in turbidity caused by bacteria was not detected at the time of measurement, was defined as MIC (minimum inhibitory concentration) (unit: μM) in the present embodiment. In addition, MIC were determined in the same manner using polymyxin B as a comparison.

[3] = system: S. aureus; assay type: cell-based, Staphylococcus aureus
Method: as §2, §3
Next, the antimicrobial activities (MIC) against gram-positive bacteria (S. aureus) in the presence of serum were tested with the same method as Example 2. […] Thereafter, the produced liquid-bouillon mediums including the drug and the serum of each concentration were then fed to the 96-well microplate at […] a time, and MIC were determined by the method same as Example 2. Sample X in the table is a mixture of sample 1 and sample 16 based on a mass ratio of 1:1. “-” in the table indicate “untested”.

[4] = system: Staphylococcus aureus IFO 12732; assay type: cell-based; details: IFO 12732, 24 h
Method: as §1, §2, §3

[5] = system: Aspergillus niger IFO 6341; assay type: cell-based; details: IFO 6341, 24 h
Method: (§4) Antimicrobial activity against fungi (Aspergillus niger IFO 6341) of the antimicrobial peptides related to the present invention was tested according to a general antimycotic susceptibility test as follows.
More specifically, a slant or plate medium (“potato dextrose agar” medium manufactured by DIFCO was used typically) adhered with spores (conidia) was prepared in advance, and A. niger (IFO 6341; JIS test strain) were gathered from the medium by scratching the medium surface 4 to 5 times from bottom up with a 1 μL disposable loop and suspended in 25 mL of PBS (free of Mg, Ca) solution containing 0.05% of surfactant (Tween® 80). Thereafter, pipetting was performed using a measuring pipette or the like such that clusters of black spores disappeared completely. The spore concentration of the spore suspension prepared by such method was determined using a hemocytometer while the above-described surfactant containing PBS solution was being diluted accordingly, thereby deriving a spore suspension having a spore concentration of approximately 2.5×10^5 spores/mL. […]
Next, a test fungus suspension was prepared by adding, with respect to 10 part by mass of the above-described spore suspension, 2 parts by mass of Alamar Blue fluorescence reagent (product of Wako Pure Chemical Industries, Ltd.) and 8 parts by mass of RPMI1640 medium containing 0.165M of MOPS, which was prepared by dissolving 5.2 g of RPMI1640 (product of Irvine Scientific) and 1.0 g of NaHCO3 in 450 mL of sterile distilled water and thereafter adding 17.12 g of MOPS and stirring, and adjusting the pH value to 7.0 by adding NaOH, and then filling up to 500 mL by adding sterile distilled water. […]
Sixteen hours after the beginning of culturing, the plate was retrieve from the incubator, and the presence of generation (growth) of mycelia in each well (well that had already been fed exclusively by the above-described test drug) used for spore growth inhibition test was evaluated with a microscope. […]

[6] = system: Aspergillus niger IFO 6341; assay type: cell-based
Method: as §4
More specifically, a slant or plate medium (“potato dextrose agar” medium manufactured by DIFCO was used typically) adhered with spores (conidia) was prepared in advance, and A. niger (IFO 6341; JIS test strain) were gathered from the medium by scratching the medium surface 4 to 5 times from bottom up with a 1 μL disposable loop and suspended in 25 mL of PBS (free of Mg, Ca) solution containing 0.05% of surfactant (Tween® 80). Thereafter, pipetting was performed using a measuring pipette or the like such that clusters of black spores disappeared completely. The spore concentration of the spore suspension prepared by such method was determined using a hemocytometer while the above-described surfactant containing PBS solution was being diluted accordingly, thereby deriving a spore suspension having a spore concentration of approximately 2.5×10^5 spores/mL.
At the same time, the above-described two polypeptides (samples 1, 3) and benzalkonium chloride serving as a comparison for antimycotic activity were dissolved in 10 mM of HEPES buffer (pH7.0) respectively to prepare stock solutions with a 2.0 mg/mL drug concentration. These were sequentially diluted to prepare various kinds of test drugs with drug (each polypeptide or benzalkonium chloride) concentrations of 400, 200, 100, 50, 25, 5 and 0.5 μg/mL.
A spore germination inhibition test and a spore growth inhibition test were performed using the above-prepared drugs and spore suspension as follows.
First, each of the above-described drugs was fed to the 96-well microplate at 40 μL a time for the spore germination inhibition test. The surplus drugs were stored in a refrigerator (4° C.) to be used for the spore growth inhibition test to be perform at a later date.
Next, a test fungus suspension was prepared by adding, with respect to 10 part by mass of the above-described spore suspension, 2 parts by mass of Alamar Blue fluorescence reagent (product of Wako Pure Chemical Industries, Ltd.) and 8 parts by mass of RPMI1640 medium containing 0.165M of MOPS, which was prepared by dissolving 5.2 g of RPMI1640 (product of Irvine Scientific) and 1.0 g of NaHCO3 in 450 mL of sterile distilled water and thereafter adding 17.12 g of MOPS and stirring, and adjusting the pH value to 7.0 by adding NaOH, and then filling up to 500 mL by adding sterile distilled water. Then, the fungus suspension was fed at 160 μL a time to the wells in which the above-described drugs were added. In addition, empty wells in which no drug was added were also fed at 160 μL a time for spore growth inhibition test. After feeding, it was cultured under a humid environment for 16 hours in an incubator at 30° C.
Twenty-four hours and 48 hours after the beginning of culturing, the colour of the mediums in the wells used for spore germination inhibition test and the wells for spore growth inhibition test were observed. Here, those in which the Alamar Blue included within the medium remain blue (oxidized form) were evaluated as positive of antimicrobial activity positive, and those that are pink (reduced form) were evaluated as negative of antimicrobial activity. Moreover, the smallest drug concentration recognized as oxidized form (blue color) was served as MIC (minimum growth inhibitory concentration) in the spore germination inhibition test and the spore growth inhibition test related to the present example.

Row | Molecule | MRSA bacterial quantity in intestine content, administered group 1 ([1]; approximately 24 hours after administration, group 1) | MRSA bacterial quantity in intestine content, administered group 2 ([1]; approximately 24 hours after administration, group 2) | MRSA bacterial quantity in intestine content, administered group 3 ([1]; approximately 24 hours after administration, group 3) | MRSA bacterial quantity in intestine content, administered group 4 ([1]; approximately 24 hours after administration, group 4) | MRSA bacterial quantity in intestine content, administered group 5 ([1]; approximately 24 hours after administration, group 5) | MRSA bacterial quantity in intestine content, Average ([1]; average of groups 1-5) | Antimicrobial Activities (MIC) E. coli [2] [µM] | Antimicrobial Activities (MIC) against S. aureus, horse serum concentration 10% [3] [µM] | Antimicrobial Activities (MIC) S. aureus [4] [µM] | MIC against A. niger, spore growth inhibition test after 24 hours [5] [µg/mL] | MIC against A. niger, spore germination inhibition test after 24 hours ([6]; IFO 6341, 24 h) [µg/mL] | MIC against A. niger, spore germination inhibition test after 48 hours ([6]; IFO 6341, 48 h) [µg/mL]
1 | CN[C@H](CC(C)C)C(=O)N[C@H]1C(=O)N[C@@H](CC(N)=O)C(=O)N[C@H]2C(=O)N[C@H]3C(=O)N[C@H](C(=O)N[C@H](C(=O)O)c4cc(O)cc(O)c4-c4cc3ccc4O)[C@H](O)c3ccc(c(Cl)c3)Oc3cc2cc(c3O[C@@H]2O[C@H](CO)[C@@H](O)[C@H](O)[C@H]2O[C@H]2C[C@](C)(N)[C@H](O)[C@H](C)O2)Oc2ccc(cc2Cl)[C@H]1O [Vancomycin, vancomycin, reference compound] | 8 ×10^3 cells/g | 10 ×10^3 cells/g | 43 ×10^3 cells/g | 22 ×10^3 cells/g | 26 ×10^3 cells/g | 22 ×10^3 cells/g | – | – | – | – | – | –
2 | H-RKKKRKVLMWWMLR-OH [sample 16, RKKKRKVLMWWMLR-COOH] | – | – | – | – | – | – | 12.5 | 3.1 | 3.1 | – | – | –
3 | H-RIRKKLRLMWWML-NH2 [sample 3, RIRKKLRLMWWML-CONH2] | – | – | – | – | – | – | 6.3 | 3.1 | 3.1 | 100 | 100 | 100
4 | H-LMWWMLRIRKKLR-NH2 [sample 4, LMWWMLRIRKKLR-CONH2] | – | – | – | – | – | – | 6.3 | 6.3 | 3.1 | – | – | –
5 | H-RGDLMWWMLAR-NH2 [comparative sample 1, RGDLMWWMLAR-CONH2, reference compound] | – | – | – | – | – | – | >100 | >50 | >100 | – | – | –

Reference: patent US7674771B2, “Antimicrobial peptides and utilization of the same” (Toagosei Co., Ltd, priority 2003, dated 2010)
